Results taken from patent US6271342A, “Sugar-modified cytostatics” (Bayer Aktiengesellschaft, priority 1995, dated 2001).
≈ marks a conversion by molar mass, not a printed value. Where “and” joins values, the source holds several entries; their conditions need not be identical. Identical values can stand only once.

Assays:
B 16 F 10 = assay: Growth inhibition test (MTT) for cytotoxic properties; assay type: cell-based, mouse; details: Table 1b
How it was run: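 Cells in RPMI 1640 with 10% FCS pre-cultured 1 day at 37° C, then exposed to test substances in DMSO; growth checked after day 3 and day 6. Read-out by MTT, 5 h incubation, isopropanol solubilization, extinction at 540 nm.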

[1] = system: bone marrow parent cells of the mouse; assay: CSF-induced proliferation of bone marrow parent cells, in vitro; assay type: cell-based; details: recombinant murine GM-CSF, 7 days
Protocol: Bone marrow cells are flushed out of the femur of mice. 10^5 cells are incubated in McCoy SA medium (0.3% agar) together with recombinant murine GM-CSF (Genzyme; parent cell colony formation) and the substances (10^-4 to 100 μg/ml) at 37° C. and 7% CO2. 7 days later, the colonies ([…]) and clusters (17-50 cells) are counted.

[2] = system: large-cell lung carcinoma LXFL 529; assay: In vivo inhibition of tumour growth using a naked mouse model; parameters: species or system Athymic naked mice (NMRI nu/nu strain)
Description: Athymic naked mice (NMRI nu/nu strain) were used for all the in vivo experiments for investigation of the inhibition of tumour growth. The large-cell lung carcinoma LXFL 529 selected was developed by serial passage in naked mice.
The tumour was implanted subcutaneously in both flanks of nu/nu naked mice 6 to 8 weeks old. Treatment was started, regardless of the doubling time, as soon as the tumours had reached a diameter of 5-7 mm. The mice were allocated to the treatment group and the control group (5 mice per group with 8-10 evaluable tumours) by randomization. The individual tumours of the control group all grew progressively.
The size of the tumours was measured in two dimensions by means of a sliding gauge. The tumour volume, which correlates well with the cell count, was then used for all the evaluations. The volume was calculated according to the equation "length×breadth×breadth/2" ([a×b^2 ]/2, a and b represent two diameters at right angles). The values of the relative tumour volume (RTV) were calculated for each individual tumour by dividing the tumour size on day X with the tumour size on day 0 (at the time of randomization). The mean RTV values were then used for the further evaluation.
The inhibition of the increase in the tumour volume (tumor volume of the test group/control group, T/C, in per cent) was the concluding measurement value.
All the compounds were administered according to an intermittent plan in each case on day 1, 5 and 9. Furthermore, all the compounds were administered intraperitoneally (i.p.) using water as the solvent.

SW 480 [3] = assay: Growth inhibition test (MTT) for cytotoxic properties; assay type: cell-based, human
How it was run: (§1)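 IC50 values come from an MTT read at 540 nm (5 h at 37 °C, 5 mg/ml MTT stock), taken on day 3 and day 6. Cells (HT 29, SW 480; 50,000 cells/ml in RPMI/10% FCS) were pre-cultured 1 day, then compound in DMSO was added.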

HT 29 [4] = assay: as above; assay type: cell-based, human
How it was run: as §1

MEXF 989 = assay: Two-layer soft agar culture of human tumour xenografts; assay type: cell-based; details: T/C ≤30%
Protocol: (§2) The in vitro activity of glycoconjugates of quinolone-a was determined on human tumour xenografts in a two-layer soft agar culture system according to Hamburger and Salmon (Science 197: 461-463).
(§3) The solid tumours were initially grown in the athymic naked mouse (NMRI nu/nu), obtained by surgery and comminuted mechanically. Individual cells were then obtained by incubation in an enzyme mixture of collagenase 0.05%, DNAse 0.07% and hyaluronidase 0.1% in RPMI at 37° C. for 30 minutes. The cells were washed 2× and then passed through a sieve of 200 μm and 20 μm mesh width.
(§4) The base layer comprises 0.2 ml of Iscoves's Modified Dulbeccos Medium with 20% foetal calf serum and 0.7% agar. 40,000 to 200,000 cells in 0.2 ml of the same medium and 0.4% agar were applied to this layer in 24 multiwell plates. The cytostatic substances were added in 0.2 ml of medium.
(§5) The cultures were incubated at 37° C. in a 7% CO2 atmosphere for 6 to 15 days. The colonies which had grown were then counted under an inverting microscope, the living colonies being stained with a tetrazolium chloride dyestuff 24 hours before the evaluation.
(§6) The effect of the active compound is expressed in per cent of surviving colonies compared with the colony count of untreated plates (T/C=colony count treated×100/control count untreated).
(§7) A substance is active if the T/C value is ≤30%.
(§8) This value is shown as the IC70 value in μg/ml in Table 8.

SW 480 [5] = assay: as above; assay type: cell-based; details: T/C ≤30%
Protocol: as §2, §3, §4, §5, §6, §7, §8

HT 29 [6] = assay: as above; assay type: cell-based; details: T/C ≤30%
Protocol: as §2, §3, §4, §5, §6, §7, §8

LXFL 529 = assay: as above; assay type: cell-based; details: T/C ≤30%
Protocol: as §2, §3, §4, §5, §6, §7, §8

OVXF 1023 = assay: as above; assay type: cell-based; details: T/C ≤30%
Protocol: as §2, §3, §4, §5, §6, §7, §8

OVXF 899 = assay: as above; assay type: cell-based; details: T/C ≤30%
Protocol: as §2, §3, §4, §5, §6, §7, §8

LXFS 538 = assay: as above; assay type: cell-based; details: T/C ≤30%
Protocol: as §2, §3, §4, §5, §6, §7, §8

CXF 280 = assay: as above; assay type: cell-based; details: T/C ≤30%
Protocol: as §2, §3, §4, §5, §6, §7, §8

[7] = Cleavage kinetics with human blood (HPLC); assay type: in vitro ADME; details: Table 2b; 37° C.
Description: In Vitro Investigation of the Cleavability of the Glycoconjugates
Cleavage Kinetics With Human Blood

tumour cell lines = assay: Growth inhibition test, carbohydrate-free comparison compounds (cell line not stated); assay type: cell-based
Protocol: The human colon cell lines SW 480 and HT 29 (ATCC no. CCL 228 and HBT-38) and the mouse melanoma cell line B 16 F 10 were cultured in Roux dishes in RPMI 1640 medium with addition of 10% FCS. The cultures were then trypsinized and taken up in RPMI plus 10% FCS to a cell count of 50,000 cells/ml. 100 μl of cell suspension/well were introduced into a 96 microwell plate and incubated for 1 day at 37° C. in a CO2 incubating cabinet. A further 100 μl of RPMI medium and 1 μl of dimethyl sulphoxide with the test substances were then added. The growth was checked after day 3 and day 6. 40 μl of MTT solution (3-(4,5-dimethylthiazol-2-yl)-2,5-diphenyltetrazoline bromide) with an initial concentration of 5 mg/ml of H2 O were added to each microwave. The plate was incubated for 5 hours in a CO2 incubating cabinet at 37° C. The medium was then sucked off and 100 μl of i-propanol/well were added. After shaking for 30 minutes with 100 μl of H2 O, the extinction was measured at 540 nm with a Titertek Multiskan MCC/340 (Flow).

[8] = Investigation of organ distribution in naked mice carrying SW 480 tumours; assay type: in vivo, Athymic naked mice (strain NMRI nu/nu); details: after conjugate 1 i.p. 300 mg/kg
[9] = as above; assay type: in vivo, Athymic naked mice (strain NMRI nu/nu)
Description: Athymic naked mice (strain NMRI nu/nu) bred in "Drug Development Laboratory, Oncotest GmbH", Prof. H. H. Fiebig, Freiburg, were used for all the experiments. The animals were kept in Macrolon cages under laminar flow conditions. Tissue of the cell line SW 480 which had been grown beforehand in several passages in the naked mice, was used as the tumour material.
Two tumours per animal were implanted subcutaneously in the two flanks of the naked mice 6 to 8 weeks old. The animals were kept for 26 to 27 days until the time of randomization. The average tumour size was then 500 mg, corresponding to a tumour diameter of about 10 mm.
The pharmacokinetics themselves proceeded as follows: the substance to be investigated was injected into the naked mice and the mice were then put back in the cages until samples were taken after 1/2 hour and after 4 hours. The taking of samples itself began with sampling of blood. For this, the mouse was anaesthetized by means of anaesthetic ether (duration 1/2 to one minute). 0.5 hour and 4 hours after injection of the substance, the abdominal cavity was opened and the mouse was exsanguinated under anaesthesia via the Vena cava caudalis in the course of 1 to 2 minutes and then sacrificed by breaking its neck. As a result, central circulatory arrest occurred and organ perfusion was suppressed. The individual organs were then exposed and removed, an operation which took about 5 minutes. Immediately thereafter, the organ samples and then the remainder of the body were weighed and frozen in liquid nitrogen.
The substance "conjugate 1" is administered i.p. in an amount of 300 mg/kg of body weight and the substance "conjugate 2" is administered i.v. into the tail vein in an amount of 100 mg/kg. 5 animals are used per substance and time.
5, 10, 50, 100 and 200 μg of substance, dissolved in ethanol/water (1:1, v/v) were added to 1 g of bovine liver. The samples were then ground in a mortar with 1 g of sea sand and 2.5 ml of cooled ethanol/water (1:1, v/v) and centrifuged at 3500 rpm for 2 minutes. After removal of the supernatant, the residue was again mixed with 2.5 ml of ethanol/water and centrifuged and the supernatants were combined. In each case 100 μl were taken and analyzed by HPLC.
The organs were worked up analogously to A, the entire organs being broken down with 2.5 ml of ethanol/water and extracted.
The amount of blood taken was mixed with 2 ml of ethanol/water (1:1, v/v) and centrifuged for 2 minutes at 3500 rpm, and the supernatant was decanted. 2 ml of ethanol/water (1:1, v/v) were again added to the residue, the mixture was centrifuged and the supernatants were combined. In each case 100 μl of the combined supernatants were analyzed by HPLC. The HPLC conditions used under A were used. [drawing 14]

[10] = Kidney, after conjugate 2 i.v. 100 mg/kg
[11] = Tumour, after conjugate 2 i.v. 100 mg/kg
[12] = Table 1a, glycoconjugates of batracyline

Protocol for SW-480: Cleavage Kinetics With Cells
(§9) 2.25 ml of PBS are incubated together with 225 μl of a cell suspension (30 mg/ml) and 25 μl of substrate stock solution (1 mg/ml in 3% dimethyl sulphoxide in PBS) at 37° C. After 1 hour and 24 hours, samples of in each case 1 ml are taken, mixed with 1 ml of ethanol and left to stand at 4° C. for 20 minutes. After centrifugation (5 minutes at 3500 rpm), 100 μl of supernatant are taken for the HPLC analysis.
Protocol for hepatoma: Cleavage Kinetics With Cells
as §9

CC1OC(Oc2ccc(NC(=S)NC(CCCCN)C(=O)NC3C=CCC4CN(c5c(F)cc6c(=O)c(C(=O)[O-])cn(C7CC7)c6c5Cl)CC43)cc2)C(O)C(OCC(=O)[O-])C1O.[Na+].[Na+] (mixture of isomers) [Example 12.6, N-{N^α -[O-(3-O-Carboxymethyl-β-L-fucosyl)-4-hydroxy-phenylamino-thiocarbonyl]-lysyl}-quinolone-a, di-sodium salt]
IC50 (B 16 F 10): 0.3 µM | IC50 [μg/ml] CSF-induced proliferation of bone marrow parent cells of the mouse [1]: 0.3 µg/mL | Dose [mg/kg/day], maximum tolerated dose (MTD) ([2]; i.p. in water on day 1, 5 and 9): 100 mg/kg/day | Survival time ([2]; individual mice, treated at MTD i.p. on day 1, 5 and 9, di-sodium salt): 23 days and > 26 days and 26 days | Relative tumour volume [% of day 0] ([2]; on day 19, treated at MTD i.p. on day 1, 5 and 9): 300.7 % of day 0 | Optimum T/C ([2]; on day 19, tumour volume of test group/control group): 19.4% | IC50 (SW 480 [3]; Table 1b): 4 µM | IC50 (HT 29 [4]; Table 1b): 7 µM

CO[C@H]1[C@H](O)[C@@H](Oc2ccc(NC(=S)N[C@H](C)C(=O)NC3C=CCC4CN(c5c(F)cc6c(=O)c(C(=O)O)cn(C7CC7)c6c5Cl)CC43)cc2)O[C@@H](C)[C@H]1O (stereo partly drawn) [Example 12.1, N-{N'-[O-(3-O-Methyl-β-L-fucosyl)-4hydroxy-phenylamino-thiocarbonyl]-D -alanyl}-quinolone-a]
IC70 /μg/ml (MEXF 989): < 0.3 µg/mL | IC70 /μg/ml (SW 480 [5]): 8 µg/mL (≈ 10 µM) | IC70 /μg/ml (HT 29 [6]): 6 µg/mL (≈ 7.5 µM) | IC70 /μg/ml (LXFL 529): 0.9 µg/mL (≈ 1.12 µM) | IC70 /μg/ml (OVXF 1023): 12 µg/mL (≈ 15 µM) | IC70 /μg/ml (OVXF 899): 45 µg/mL (≈ 56.2 µM) | IC70 /μg/ml (LXFS 538): 0.4 µg/mL (≈ 0.5 µM) | IC70 /μg/ml (CXF 280): 70 µg/mL (≈ 87.5 µM) | IC50 (B 16 F 10): 0.1 µM | IC50 [μg/ml] CSF-induced proliferation of bone marrow parent cells of the mouse [1]: 0.21 µg/mL | % cleavage in SW-480 1 hour (SW-480): 0% | % cleavage in SW-480 24 hours (SW-480): 0% | % cleavage in human blood 1 hour [7]: 0% | % cleavage in human blood 24 hours [7]: 0% | IC50 (SW 480 [3]; Table 1b): 1 µM | IC50 (HT 29 [4]; Table 1b): 1.5 µM | % cleavage in hepatoma 1 hour (hepatoma): 0% | % cleavage in hepatoma 24 hours (hepatoma): 0%

N-[N^α,N^ε -bis-(4-hydroxyphenylamino-thiocarbonyl)-lysyl-D-alanyl]-batracyline
IC50 (tumour cell lines): > 250 µM

N-[N^α,N^ε -bis-(4-hydroxyphenylamino-thiocarbonyl)-lysyl]-batracyline
IC50 (tumour cell lines): > 250 µM

batracyline
Mean 1 hour (μg/g of organ) ([8]; Kidney): 26.1 μg/g of organ | Mean 1 hour (μg/g of organ) ([8]; Liver): 34.1 μg/g of organ | Mean 4 hours (μg/g of organ) ([9]; Kidney, after conjugate 1 i.p. 300 mg/kg): 27.5 μg/g of organ | Mean 0.5 hour (μg/g of organ) [9, 10]: 10.7 μg/g of organ | Mean 4 hours (μg/g of organ) [9, 10]: 0.8 μg/g of organ | Mean 4 hours (μg/g of organ) ([9]; Liver, after conjugate 1 i.p. 300 mg/kg): 22.4 μg/g of organ | Mean 0.5 hour (μg/g of organ) [9, 11]: 2.5 μg/g of organ | Mean 4 hours (μg/g of organ) [9, 11]: 3.12 μg/g of organ | IC50 (SW 480 [3]; [12]): 25 µM | IC50 (HT 29 [4]; [12]): 20 µM
